Molecular target: CRBN-DDB1 / GST-IRAK4 ternary complex (Homo sapiens, UniProt Q96SW2+Q9NWZ3)
Assay: AlphaLISA assay to determine ternary complex formation
Type: binding
Procedure: The assay mixture contains 100 nM CRBN-DDB1, 100 nM GST-IRAK4, 20 μg/mL Nickle Chelate Donor Bead (Perkin Elmer Catalog # AS101D) and 20 μg/mL GSH Acceptor Bead (Perkin Elmer Catalog # AL109C) in a buffer containing 50 mM HEPES, pH 7.5, 100 mM NaCl, 0.1% BSA, 2 mM TCEP, 0.05% Tween-20. […] AlphaLISA signals (Excitation 680 nm and emission 615 nm) were recorded on a Perkin Elmer EnVision 2104 Multilabel reader. The raw data was converted to the relative amount of ternary complex formation by normalization to the signal generated by His-tagged GST protein only. The final data points were plotted and the curves were fit using non-linear regression using GraphPad Prism software.

Chain of CRBN-DDB1 / GST-IRAK4 ternary complex (Q9NWZ3 whole entry): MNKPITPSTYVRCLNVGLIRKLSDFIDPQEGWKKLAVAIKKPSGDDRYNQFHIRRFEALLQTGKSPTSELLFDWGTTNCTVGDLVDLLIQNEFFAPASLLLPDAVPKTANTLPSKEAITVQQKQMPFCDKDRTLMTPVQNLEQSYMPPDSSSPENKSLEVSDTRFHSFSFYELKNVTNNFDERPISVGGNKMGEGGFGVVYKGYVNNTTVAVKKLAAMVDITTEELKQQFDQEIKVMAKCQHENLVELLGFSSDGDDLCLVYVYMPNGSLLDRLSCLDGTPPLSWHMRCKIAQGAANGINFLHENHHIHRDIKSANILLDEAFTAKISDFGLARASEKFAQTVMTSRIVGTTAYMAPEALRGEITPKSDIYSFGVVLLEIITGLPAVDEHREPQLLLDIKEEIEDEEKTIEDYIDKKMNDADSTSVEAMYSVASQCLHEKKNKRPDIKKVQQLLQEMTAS
Chain of CRBN-DDB1 / GST-IRAK4 ternary complex (Q96SW2 whole entry): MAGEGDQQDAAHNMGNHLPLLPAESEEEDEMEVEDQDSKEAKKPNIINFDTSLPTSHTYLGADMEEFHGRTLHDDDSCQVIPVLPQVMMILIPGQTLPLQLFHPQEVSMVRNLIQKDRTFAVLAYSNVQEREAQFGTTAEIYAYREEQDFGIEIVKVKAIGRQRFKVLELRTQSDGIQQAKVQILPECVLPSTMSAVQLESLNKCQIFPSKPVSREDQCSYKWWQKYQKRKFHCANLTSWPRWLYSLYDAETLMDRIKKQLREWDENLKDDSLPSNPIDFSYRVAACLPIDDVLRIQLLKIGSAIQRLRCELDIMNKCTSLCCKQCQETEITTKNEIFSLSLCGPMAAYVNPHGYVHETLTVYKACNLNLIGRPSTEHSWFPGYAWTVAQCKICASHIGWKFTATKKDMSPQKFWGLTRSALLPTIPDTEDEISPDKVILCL
Chain of CRBN-DDB1 / GST-IRAK4 ternary complex (Q16531 whole entry partner): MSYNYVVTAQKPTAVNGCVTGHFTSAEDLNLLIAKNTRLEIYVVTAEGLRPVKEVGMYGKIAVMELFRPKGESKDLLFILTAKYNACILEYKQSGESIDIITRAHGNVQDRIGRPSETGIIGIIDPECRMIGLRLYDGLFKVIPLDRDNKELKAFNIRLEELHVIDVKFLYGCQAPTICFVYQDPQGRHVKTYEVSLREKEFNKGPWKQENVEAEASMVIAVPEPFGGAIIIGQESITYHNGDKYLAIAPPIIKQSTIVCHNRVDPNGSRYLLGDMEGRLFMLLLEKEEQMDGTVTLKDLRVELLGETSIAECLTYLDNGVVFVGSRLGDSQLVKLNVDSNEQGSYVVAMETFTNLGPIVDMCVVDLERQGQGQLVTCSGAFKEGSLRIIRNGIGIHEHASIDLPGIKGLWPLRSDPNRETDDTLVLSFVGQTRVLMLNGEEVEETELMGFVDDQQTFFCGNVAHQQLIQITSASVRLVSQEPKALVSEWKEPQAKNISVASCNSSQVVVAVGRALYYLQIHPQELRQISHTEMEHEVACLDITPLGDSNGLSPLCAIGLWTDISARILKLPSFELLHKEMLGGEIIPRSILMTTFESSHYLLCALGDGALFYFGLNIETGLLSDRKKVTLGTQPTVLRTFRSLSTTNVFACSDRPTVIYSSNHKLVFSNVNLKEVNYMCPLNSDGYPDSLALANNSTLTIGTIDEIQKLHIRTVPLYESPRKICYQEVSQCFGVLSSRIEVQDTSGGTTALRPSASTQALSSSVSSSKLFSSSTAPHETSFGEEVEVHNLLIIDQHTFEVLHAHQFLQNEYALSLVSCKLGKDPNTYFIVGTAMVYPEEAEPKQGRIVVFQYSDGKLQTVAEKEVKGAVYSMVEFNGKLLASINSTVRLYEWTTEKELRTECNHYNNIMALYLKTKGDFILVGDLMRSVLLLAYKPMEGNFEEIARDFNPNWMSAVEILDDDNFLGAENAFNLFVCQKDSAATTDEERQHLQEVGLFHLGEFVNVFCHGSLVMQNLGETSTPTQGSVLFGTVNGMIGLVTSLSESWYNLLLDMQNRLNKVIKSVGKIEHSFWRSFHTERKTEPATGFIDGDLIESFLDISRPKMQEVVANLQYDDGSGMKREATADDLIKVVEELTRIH

SMILES: NC(=O)c1nn(-c2ccc(C(=O)NCCOCCOCCNc3cccc4c3C(=O)N(C3CCC(=O)NC3=O)C4=O)cc2)cc1NC(=O)c1coc(-c2ccnc(NCC(F)(F)F)c2)n1 (stereo not drawn) [I-127, N-[3-carbamoyl-1-[4-[2-[2-[2-[[2-(2,6-dioxo-3-piperidyl)-1,3-dioxo-isoindolin-4-yl]amino]ethoxy]ethoxy]ethylcarbamoyl]phenyl]pyrazol-4-yl]-2-[2-(2,2,2-trifluoroethylamino)-4-pyridyl]oxazole-4-carboxamide]
- Average % Ternary Complex (N = 2) (compound concentration 1.00E−07 M): 31.29%
- Average % Ternary Complex (N = 2) (compound concentration 1.25E−08 M): 5.89%
- Average % Ternary Complex (N = 2) (compound concentration 1.28E−05 M): 1.58%
- Average % Ternary Complex (N = 2) (compound concentration 1.60E−06 M): 12.53%
- Average % Ternary Complex (N = 2) (compound concentration 2.00E−07 M): 28.96%
- Average % Ternary Complex (N = 2) (compound concentration 2.50E−08 M): 12.66%
- Average % Ternary Complex (N = 2) (compound concentration 3.20E−06 M): 6.74%
- Average % Ternary Complex (N = 2) (compound concentration 4.00E−07 M): 25.83%
- Average % Ternary Complex (N = 2) (compound concentration 5.00E−08 M): 23.14%
- Average % Ternary Complex (N = 2) (compound concentration 6.25E−09 M): 2.71%
- Average % Ternary Complex (N = 2) (compound concentration 6.40E−06 M): 3.36%
- Average % Ternary Complex (N = 2) (compound concentration 8.00E−07 M): 17.79%

Reference: patent publication US10874743B2, “IRAK degraders and uses thereof” (Kymera Therapeutics, Inc., priority 2017, dated 2020)
